ChEMBL document CHEMBL5360655, “Design, Synthesis, and Biological Evaluation of Novel P2X7 Receptor Antagonists for the Treatment of Septic Acute Kidney Injury” (J Med Chem, 2023)
Calls of active or inactive are those of the source. No cut-off for these calls is given here.

Experiments:
P2X purinoceptor 7 [1] = target: T1, P2X purinoceptor 7 (Homo sapiens, UniProt Q99572); assay: Antagonist activity at human P2X7 receptor expressed in HEK293 cells assessed as inhibition of ATP-induced receptor pore formation by propidium iodide dye uptake based fluorescence analysis; assay type: cell-based
T1 sequence (Q99572 whole entry): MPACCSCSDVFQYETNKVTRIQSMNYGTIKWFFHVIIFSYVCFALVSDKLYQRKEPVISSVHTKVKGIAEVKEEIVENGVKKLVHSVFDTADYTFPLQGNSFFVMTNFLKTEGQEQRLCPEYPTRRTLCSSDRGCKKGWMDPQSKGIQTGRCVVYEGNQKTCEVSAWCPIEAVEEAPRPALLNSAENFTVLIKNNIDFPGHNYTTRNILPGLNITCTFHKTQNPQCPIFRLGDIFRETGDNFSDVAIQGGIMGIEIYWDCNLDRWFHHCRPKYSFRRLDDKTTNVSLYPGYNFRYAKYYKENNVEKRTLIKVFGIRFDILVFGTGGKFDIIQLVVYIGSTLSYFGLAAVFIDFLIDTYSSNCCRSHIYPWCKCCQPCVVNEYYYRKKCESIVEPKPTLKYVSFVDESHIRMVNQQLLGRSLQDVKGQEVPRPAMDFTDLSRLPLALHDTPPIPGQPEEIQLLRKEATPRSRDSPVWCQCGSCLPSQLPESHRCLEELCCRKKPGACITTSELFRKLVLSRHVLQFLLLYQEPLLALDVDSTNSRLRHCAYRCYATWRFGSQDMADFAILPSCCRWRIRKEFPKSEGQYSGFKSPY

THP-1 = assay: Cytotoxicity against human THP-1 cells assessed as effect on cell viability at 1 to 4 uM incubated for 2 hrs by CCK8 assay; assay type: toxicity, cell-based; conditions: thp-1, 2 h, dose 1-4 µM
[2] = Half life in BALB/c mouse at 10 mg/kg, po measured for 24 hrs by LC-MS/MS analysis; assay type: ADME, organism-based; conditions: in vivo
[3] = Clearance in BALB/c mouse at 10 mg/kg, ip measured for 24 hrs by LC-MS/MS analysis; assay type: ADME, organism-based; conditions: in vivo
[4] = AUC(0 to t) in BALB/c mouse at 10 mg/kg, po measured for 24 hrs by LC-MS/MS analysis; assay type: ADME, organism-based; design: time 24 hrs, dose 10 mg/kg, route po; conditions: in vivo
[5] = Half life in human liver microsomes; assay type: ADME, Microsome
[6] = Clearance in BALB/c mouse at 10 mg/kg, iv measured for 24 hrs by LC-MS/MS analysis; assay type: ADME, organism-based; conditions: in vivo
Mus musculus [7] = assay: Reno-protective activity against LPS-induced acute kidney injury C57BL/6J mouse model assessed as decrease in BUN level at 10 mg/kg, ip administered twice at 30 mins prior to LPS challenge and 8 hrs post-LPS challenge and measured at 16 hrs post-LPS challenge; assay type: functional, organism-based; conditions: time 16.5 hrs
[8] = Tmax in BALB/c mouse at 10 mg/kg, po measured for 24 hrs by LC-MS/MS analysis; assay type: ADME, organism-based; conditions: in vivo
[9] = AUC(0 to t) in BALB/c mouse at 10 mg/kg, ip measured for 24 hrs by LC-MS/MS analysis; assay type: ADME, organism-based; design: dose 10 mg/kg, time 24 hrs, route ip; conditions: in vivo
[10] = Oral bioavailability in BALB/c mouse at 10 mg/kg measured for 24 hrs by LC-MS/MS analysis; assay type: ADME, organism-based; conditions: in vivo
[11] = Tmax in BALB/c mouse at 10 mg/kg, iv measured for 24 hrs by LC-MS/MS analysis; assay type: ADME, organism-based; conditions: in vivo
HEK293 [12] = assay: Cytotoxicity against human HEK293 cells transfected with human P2X7 receptor assessed as effect on cell viability at 1 to 4 uM incubated for 2 hrs by CCK8 assay; assay type: toxicity, cell-based; conditions: hek293, 2 h, dose 1-4 µM
[13] = Cmax in BALB/c mouse at 10 mg/kg, ip measured for 24 hrs by LC-MS/MS analysis; assay type: ADME, organism-based; design: dose 10 mg/kg, time 24 hrs, route ip; conditions: in vivo
[14] = Intrinsic clearance in mouse liver microsomes; assay type: ADME, Microsome; conditions: read-out: CLH
[15] = Half life in mouse liver microsomes; assay type: ADME, Microsome
[16] = target: T2, P2X purinoceptor 7 (Homo sapiens) (UniProt Q99572); assay: Antagonist activity at human P2X7 receptor expressed in HEK293 cells assessed as inhibition of ATP-induced receptor pore formation at 200 nM by propidium iodide dye uptake based fluorescence analysis; assay type: cell-based
T2 sequence (whole entry): T1 sequence (Q99572 whole entry)

P2X purinoceptor 7 [17] = target: T1, P2X purinoceptor 7; assay: Antagonist activity at P2X7 receptor in human THP-1 cells assessed as inhibition of ATP-induced IL-1beta secretion pretreated with LPS for 3 hrs followed by incubation with compound for 40 mins followed by treatment with ATP for 1 hr by ELISA; assay type: cell-based
[18] = Clearance in BALB/c mouse at 10 mg/kg, po measured for 24 hrs by LC-MS/MS analysis; assay type: ADME, organism-based; conditions: in vivo
[19] = target: T3, P2X purinoceptor 7 (Mus musculus) (UniProt Q9Z1M0); assay: Antagonist activity at mouse P2X7 receptor expressed in HEK293 cells assessed as inhibition of ATP-induced receptor pore formation at 1 uM by propidium iodide dye uptake based fluorescence analysis; assay type: cell-based; conditions: filed as antagonist
T3 sequence (whole entry): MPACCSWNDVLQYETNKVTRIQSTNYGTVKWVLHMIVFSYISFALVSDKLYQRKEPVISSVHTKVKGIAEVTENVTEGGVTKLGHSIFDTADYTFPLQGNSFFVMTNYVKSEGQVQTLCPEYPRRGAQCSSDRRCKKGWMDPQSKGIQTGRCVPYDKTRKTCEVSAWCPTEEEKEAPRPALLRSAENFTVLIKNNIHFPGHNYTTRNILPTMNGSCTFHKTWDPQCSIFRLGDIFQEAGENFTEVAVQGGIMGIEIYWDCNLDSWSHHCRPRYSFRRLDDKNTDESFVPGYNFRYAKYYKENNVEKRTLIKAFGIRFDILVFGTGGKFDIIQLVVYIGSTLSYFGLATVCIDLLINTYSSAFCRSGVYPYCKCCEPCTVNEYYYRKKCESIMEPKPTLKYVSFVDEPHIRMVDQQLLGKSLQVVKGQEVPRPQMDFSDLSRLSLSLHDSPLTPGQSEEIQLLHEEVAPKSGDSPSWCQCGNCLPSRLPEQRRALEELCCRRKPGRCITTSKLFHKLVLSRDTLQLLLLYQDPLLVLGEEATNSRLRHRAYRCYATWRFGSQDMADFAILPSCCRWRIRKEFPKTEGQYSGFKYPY

[20] = Half life in BALB/c mouse at 10 mg/kg, iv measured for 24 hrs by LC-MS/MS analysis; assay type: ADME, organism-based; conditions: in vivo
[21] = target: T3, P2X purinoceptor 7 (Mus musculus); assay: Antagonist activity at mouse P2X7 receptor expressed in HEK293 cells assessed as inhibition of ATP-induced receptor pore formation at 200 nM by propidium iodide dye uptake based fluorescence analysis; assay type: cell-based; conditions: filed as antagonist
[22] = Intrinsic clearance in human liver microsomes; assay type: ADME, Microsome; conditions: read-out: CLH
Mus musculus [23] = assay: Reno-protective activity against LPS-induced acute kidney injury C57BL/6J mouse model assessed as decrease in serum […] level at 10 mg/kg, ip administered twice at 30 mins prior to LPS challenge and 8 hrs post-LPS challenge and measured at 16 hrs post-LPS challenge; assay type: functional, organism-based; conditions: time 16.5 hrs
[24] = Cmax in BALB/c mouse at 10 mg/kg, iv measured for 24 hrs by LC-MS/MS analysis; assay type: ADME, organism-based; design: time 24 hrs, dose 10 mg/kg, route iv; conditions: in vivo
[25] = Cmax in BALB/c mouse at 10 mg/kg, po measured for 24 hrs by LC-MS/MS analysis; assay type: ADME, organism-based; design: time 24 hrs, dose 10 mg/kg, route po; conditions: in vivo
[26] = target: T2, P2X purinoceptor 7 (Homo sapiens); assay: Antagonist activity at human P2X7 receptor expressed in HEK293 cells assessed as inhibition of ATP-induced receptor pore formation at 1 uM by propidium iodide dye uptake based fluorescence analysis; assay type: cell-based; conditions: filed as antagonist
[27] = Tmax in BALB/c mouse at 10 mg/kg, ip measured for 24 hrs by LC-MS/MS analysis; assay type: ADME, organism-based; conditions: in vivo
P2X purinoceptor 7 [28] = target: T4, P2X purinoceptor 7 (Mus musculus, UniProt Q9Z1M0); assay: Antagonist activity at mouse P2X7 receptor expressed in HEK293 cells assessed as inhibition of ATP-induced receptor pore formation by propidium iodide dye uptake based fluorescence analysis; assay type: cell-based
T4 sequence (Q9Z1M0 whole entry): T3 sequence (whole entry)

[29] = Half life in BALB/c mouse at 10 mg/kg, ip measured for 24 hrs by LC-MS/MS analysis; assay type: ADME, organism-based; conditions: in vivo
[30] = AUC(0 to t) in BALB/c mouse at 10 mg/kg, iv measured for 24 hrs by LC-MS/MS analysis; assay type: ADME, organism-based; design: time 24 hrs, dose 10 mg/kg, route iv; conditions: in vivo
HEK293 [31] = assay: Cytotoxicity against human HEK293 cells transfected with mouse P2X7 receptor assessed as effect on cell viability at 1 to 4 uM incubated for 2 hrs by CCK8 assay; assay type: toxicity, cell-based; conditions: hek293, 2 h, dose 1-4 µM

IC50 (P2X purinoceptor 7 [1]) | half-life [2] | CL/F [3] | AUC(0-t) at 24 h [4] | half-life [5] | clearance [6] | Tmax [8] | AUC(0-t) at 24 h [9] | bioavailability [10] | Tmax [11] | Cmax [13] | CLint scaled [14] | half-life [15] | IC50 (P2X purinoceptor 7 [17]) | CL/F [18] | inhibition [19] | half-life [20] | SMILES | Activity (THP-1) | Activity (Mus musculus [7]) | Activity (HEK293 [12]) | further results
297 nM | 2.1 h | 13.5 mL/min/kg | 29100 ng·h/mL | > 2 h | 2 mL/min/kg | 2 h | 12000 ng·h/mL | 37.3% | 0.08 h | 1470 ng/mL | < 12 mL/min/kg | > 2 h | 635 nM | 5.83 mL/min/kg | 100% | 4.94 h | CS(=O)(=O)c1ccc(-c2ncc(C(=O)NCc3cn(-c4cc(Cl)ccn4)nn3)s2)cc1 | Non-Toxic | Active | Non-Toxic | inhibition [16]: 38.2%; inhibition [21]: 101%; CLint scaled [22]: < 12 mL/min/kg; Activity (Mus musculus [23]): Active; Cmax [24]: 25800 ng/mL; Cmax [25]: 6500 ng/mL; inhibition [26]: 53.6%; Tmax [27]: 4.67 h; IC50 (P2X purinoceptor 7 [28]): 26.9 nM; half-life [29]: 3.98 h; AUC(0-t) at 24 h [30]: 77900 ng·h/mL; Activity (HEK293 [31]): Non-Toxic
166 nM | 2.66 h | 6.83 mL/min/kg | 7140 ng·h/mL | > 2 h | 3.67 mL/min/kg | 2 h | 24400 ng·h/mL | 17.5% | 1.39 h | 3660 ng/mL | < 12 mL/min/kg | > 2 h | 289 nM | 26.3 mL/min/kg | 114% | 7.87 h | CS(=O)(=O)c1ccc(-c2ncc(C(=O)NCc3cn(-c4cc(Br)ccn4)nn3)s2)cc1 | Non-Toxic | Active | Non-Toxic | inhibition ([16]; filed as antagonist): 56.9%; inhibition [21]: 114%; CLint scaled [22]: < 12 mL/min/kg; Activity (Mus musculus [23]): Active; Cmax [24]: 3410 ng/mL; Cmax [25]: 1010 ng/mL; inhibition [26]: 100%; Tmax [27]: 4 h; IC50 (P2X purinoceptor 7 [28]): 12.2 nM; half-life [29]: 8.17 h; AUC(0-t) at 24 h [30]: 40900 ng·h/mL; Activity (HEK293 [31]): Non-Toxic
